Assay results from ChEMBL document CHEMBL5465560, “Selectivity Literature for EUbOPEN Chemogenomic Library” (2024).

Assays:
[1] = molecular target: Protein-tyrosine kinase 6 (Homo sapiens, UniProt Q13882); test: Selectivity interaction (Kinase panel (Z-LYTE Assay)) EUB0001632a PTK6; settings: at 10 µM
[2] = tested on: PI3-kinase p110-alpha/p85-alpha (Homo sapiens), P27986+P42336 [E545K]; test: Selectivity interaction (Adapta Assay) EUB0001632a PIK3CA; assay type: protein-complex assay; settings: at 10 µM
[3] = molecular target: Vascular endothelial growth factor receptor 3 (Homo sapiens, UniProt P35916); test: Selectivity interaction (KinomeScan (DiscoverX)) EUB0000666a FLT4; settings: at 10 µM
Sequence of Vascular endothelial growth factor receptor 3 (P35916 whole entry): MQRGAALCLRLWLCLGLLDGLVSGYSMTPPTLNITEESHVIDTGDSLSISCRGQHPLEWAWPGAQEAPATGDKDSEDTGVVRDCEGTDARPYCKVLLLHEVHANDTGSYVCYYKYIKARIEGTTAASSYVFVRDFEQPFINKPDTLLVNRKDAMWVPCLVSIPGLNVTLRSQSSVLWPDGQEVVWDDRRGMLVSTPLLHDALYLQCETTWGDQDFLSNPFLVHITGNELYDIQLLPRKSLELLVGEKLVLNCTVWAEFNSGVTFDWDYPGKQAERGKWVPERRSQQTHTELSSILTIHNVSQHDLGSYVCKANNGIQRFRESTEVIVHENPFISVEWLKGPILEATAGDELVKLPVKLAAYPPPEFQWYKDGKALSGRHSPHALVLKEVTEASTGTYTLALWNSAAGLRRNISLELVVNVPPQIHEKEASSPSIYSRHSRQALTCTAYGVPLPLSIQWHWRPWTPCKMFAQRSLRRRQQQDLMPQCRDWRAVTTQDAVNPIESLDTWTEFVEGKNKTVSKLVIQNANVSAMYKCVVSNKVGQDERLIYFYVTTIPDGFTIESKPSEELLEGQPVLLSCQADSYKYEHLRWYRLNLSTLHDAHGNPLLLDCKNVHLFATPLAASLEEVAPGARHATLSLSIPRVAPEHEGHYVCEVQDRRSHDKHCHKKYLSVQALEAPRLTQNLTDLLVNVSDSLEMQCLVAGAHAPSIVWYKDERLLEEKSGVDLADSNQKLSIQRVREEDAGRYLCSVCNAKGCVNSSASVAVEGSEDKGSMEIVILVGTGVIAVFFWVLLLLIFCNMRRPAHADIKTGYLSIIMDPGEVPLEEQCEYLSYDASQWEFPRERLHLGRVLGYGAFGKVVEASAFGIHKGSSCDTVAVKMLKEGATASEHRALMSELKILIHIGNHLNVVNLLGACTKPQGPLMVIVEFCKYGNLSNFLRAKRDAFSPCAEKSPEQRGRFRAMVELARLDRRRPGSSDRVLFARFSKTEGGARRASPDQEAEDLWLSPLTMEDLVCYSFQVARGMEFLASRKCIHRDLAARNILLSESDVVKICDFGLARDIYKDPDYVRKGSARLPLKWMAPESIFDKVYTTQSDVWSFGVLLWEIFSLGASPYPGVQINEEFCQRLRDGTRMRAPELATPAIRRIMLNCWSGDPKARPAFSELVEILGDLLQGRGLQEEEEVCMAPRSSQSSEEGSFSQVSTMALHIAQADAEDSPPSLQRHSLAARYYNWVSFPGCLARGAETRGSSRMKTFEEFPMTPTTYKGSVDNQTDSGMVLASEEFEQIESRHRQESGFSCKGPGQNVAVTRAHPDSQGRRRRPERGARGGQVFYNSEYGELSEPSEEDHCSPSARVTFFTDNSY

[4] = molecular target: Serine/threonine-protein kinase Chk2 (Homo sapiens) (UniProt O96017); test: Selectivity interaction (ActivX KiNativ screen (kinase selectivity in THP-1 cell lysates)) EUB0000639a CHEK2; assay type: subcellular; settings: lysate, at 1 µM
Sequence of Serine/threonine-protein kinase Chk2 (Homo sapiens) (O96017 whole entry): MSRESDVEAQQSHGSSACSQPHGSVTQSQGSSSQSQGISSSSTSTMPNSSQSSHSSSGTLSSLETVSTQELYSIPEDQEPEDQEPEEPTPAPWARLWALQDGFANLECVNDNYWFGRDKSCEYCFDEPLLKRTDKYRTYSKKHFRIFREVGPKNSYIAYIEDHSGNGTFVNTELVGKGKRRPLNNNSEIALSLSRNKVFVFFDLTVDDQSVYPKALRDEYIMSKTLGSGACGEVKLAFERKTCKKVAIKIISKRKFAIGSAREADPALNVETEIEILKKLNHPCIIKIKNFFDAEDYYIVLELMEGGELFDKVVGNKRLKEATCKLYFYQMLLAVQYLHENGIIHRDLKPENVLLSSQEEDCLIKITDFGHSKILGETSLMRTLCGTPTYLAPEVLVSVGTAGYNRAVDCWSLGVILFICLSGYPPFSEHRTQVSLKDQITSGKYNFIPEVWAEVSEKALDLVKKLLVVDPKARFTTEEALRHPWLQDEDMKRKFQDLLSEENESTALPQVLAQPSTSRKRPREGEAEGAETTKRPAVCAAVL

[5] = molecular target: T1, Serine/threonine-protein kinase VRK1 (Homo sapiens) (UniProt Q99986); test: Selectivity interaction (Kinase panel (DSF assay)) EUB0001558a VRK1
T1 sequence (whole entry): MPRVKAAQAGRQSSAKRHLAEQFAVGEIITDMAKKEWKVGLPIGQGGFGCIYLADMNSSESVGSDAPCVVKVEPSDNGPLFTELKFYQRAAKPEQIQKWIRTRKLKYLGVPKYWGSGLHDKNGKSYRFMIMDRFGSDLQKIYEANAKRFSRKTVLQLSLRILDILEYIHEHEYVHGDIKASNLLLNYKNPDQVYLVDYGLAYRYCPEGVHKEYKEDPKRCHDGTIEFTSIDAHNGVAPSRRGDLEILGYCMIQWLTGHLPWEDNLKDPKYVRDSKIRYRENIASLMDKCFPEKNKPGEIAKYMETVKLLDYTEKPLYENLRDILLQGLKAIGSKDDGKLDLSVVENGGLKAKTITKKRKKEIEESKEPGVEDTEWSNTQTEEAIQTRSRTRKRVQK

[6] = molecular target: Phosphatidylinositol 4,5-bisphosphate 3-kinase catalytic subunit gamma isoform (Homo sapiens) (UniProt P48736); test: Selectivity interaction (Panel of kinases, GPCRs, ion channels and transporters (enzymatic assay)) EUB0000223bCl PIK3CG
Sequence of Phosphatidylinositol 4,5-bisphosphate 3-kinase catalytic subunit gamma isoform (Homo sapiens) (P48736 whole entry, looked up, canonical isoform): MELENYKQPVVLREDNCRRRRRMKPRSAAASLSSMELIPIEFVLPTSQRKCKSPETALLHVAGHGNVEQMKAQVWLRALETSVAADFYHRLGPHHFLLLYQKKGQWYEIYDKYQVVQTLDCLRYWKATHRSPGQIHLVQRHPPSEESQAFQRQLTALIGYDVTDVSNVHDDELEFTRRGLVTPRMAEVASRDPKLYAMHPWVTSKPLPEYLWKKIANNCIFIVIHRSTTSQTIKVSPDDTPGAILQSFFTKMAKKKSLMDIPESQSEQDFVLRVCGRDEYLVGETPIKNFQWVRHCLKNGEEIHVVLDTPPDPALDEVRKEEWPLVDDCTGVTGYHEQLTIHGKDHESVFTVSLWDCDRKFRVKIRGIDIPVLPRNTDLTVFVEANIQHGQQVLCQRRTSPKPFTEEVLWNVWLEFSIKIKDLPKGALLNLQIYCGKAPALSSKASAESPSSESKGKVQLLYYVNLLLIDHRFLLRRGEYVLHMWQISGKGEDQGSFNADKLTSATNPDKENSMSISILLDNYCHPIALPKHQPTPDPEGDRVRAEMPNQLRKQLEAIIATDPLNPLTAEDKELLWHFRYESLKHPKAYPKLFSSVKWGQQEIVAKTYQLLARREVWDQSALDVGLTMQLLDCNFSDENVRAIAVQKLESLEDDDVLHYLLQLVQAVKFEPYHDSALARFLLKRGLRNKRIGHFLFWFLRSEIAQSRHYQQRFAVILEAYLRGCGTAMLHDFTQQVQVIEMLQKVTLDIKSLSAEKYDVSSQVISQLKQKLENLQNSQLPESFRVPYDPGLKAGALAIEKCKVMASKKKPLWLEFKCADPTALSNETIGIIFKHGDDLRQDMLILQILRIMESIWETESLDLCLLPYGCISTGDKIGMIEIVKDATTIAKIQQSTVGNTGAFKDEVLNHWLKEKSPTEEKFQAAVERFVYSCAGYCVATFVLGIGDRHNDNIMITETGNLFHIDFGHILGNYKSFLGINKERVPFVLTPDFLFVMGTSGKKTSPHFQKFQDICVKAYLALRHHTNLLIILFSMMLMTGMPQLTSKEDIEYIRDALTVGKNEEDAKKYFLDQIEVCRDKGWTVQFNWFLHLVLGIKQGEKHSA

[7] = molecular target: RAC-alpha serine/threonine-protein kinase (Homo sapiens, UniProt P31749); test: Selectivity interaction (KinomeScan (DiscoverX)) EUB0000655a AKT1; settings: at 10 µM
[8] = molecular target: Mitogen-activated protein kinase kinase kinase 1 (Homo sapiens, UniProt Q13233); test: Selectivity interaction (KinomeScan (DiscoverX)) EUB0000655a MAP3K1; settings: at 10 µM
[9] = molecular target: Serine/threonine-protein kinase/endoribonuclease IRE1 (Homo sapiens) (UniProt O75460); test: Selectivity interaction (KinomeScan (DiscoverX)) EUB0001079a ERN1; settings: at 1 µM
[10] = molecular target: Glycogen synthase kinase-3 beta (Homo sapiens, UniProt P49841); test: Selectivity interaction (Kinase panel (KiNativ target engagement assay in Jurkat cells)) EUB0001635a GSK3B; assay type: cell-based; settings: Selectivity number of off-targets 0.0, Selectivity number of targets 233.0, Source Knowledge https://www.sciencedirect.com/science/article/pii/S2451945619300674?via%3Dihub, at 1 µM
[11] = molecular target: Serine/threonine-protein kinase 24 (Homo sapiens) (UniProt Q9Y6E0); test: Selectivity interaction (Kinase panel (KiNativ target engagement assay in Jurkat cells)) EUB0001635a STK24; assay type: cell-based; settings: Selectivity number of off-targets 0.0, Selectivity number of targets 233.0, Source Knowledge https://www.sciencedirect.com/science/article/pii/S2451945619300674?via%3Dihub, at 1 µM
[12] = molecular target: Cyclin-dependent kinase 3 (Homo sapiens) (UniProt Q00526); test: Selectivity interaction (KinomeScan (DiscoverX)) EUB0000229b CDK3; settings: at 10 µM
Sequence of Cyclin-dependent kinase 3 (Homo sapiens) (Q00526 whole entry, looked up): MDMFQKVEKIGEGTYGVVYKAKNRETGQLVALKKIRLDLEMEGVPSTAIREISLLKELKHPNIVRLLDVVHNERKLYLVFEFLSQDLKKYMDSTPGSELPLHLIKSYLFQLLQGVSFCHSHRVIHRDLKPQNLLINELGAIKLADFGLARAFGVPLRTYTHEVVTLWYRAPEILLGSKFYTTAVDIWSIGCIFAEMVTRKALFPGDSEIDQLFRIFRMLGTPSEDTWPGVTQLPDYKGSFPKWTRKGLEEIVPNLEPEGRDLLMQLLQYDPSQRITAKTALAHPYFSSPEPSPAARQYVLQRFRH

[13] = molecular target: T2, Cyclin-dependent kinase-like 5 (Homo sapiens) (UniProt O76039); test: Selectivity interaction (KinomeScan (DiscoverX)) EUB0000229b CDKL5; settings: at 10 µM
T2 sequence (whole entry): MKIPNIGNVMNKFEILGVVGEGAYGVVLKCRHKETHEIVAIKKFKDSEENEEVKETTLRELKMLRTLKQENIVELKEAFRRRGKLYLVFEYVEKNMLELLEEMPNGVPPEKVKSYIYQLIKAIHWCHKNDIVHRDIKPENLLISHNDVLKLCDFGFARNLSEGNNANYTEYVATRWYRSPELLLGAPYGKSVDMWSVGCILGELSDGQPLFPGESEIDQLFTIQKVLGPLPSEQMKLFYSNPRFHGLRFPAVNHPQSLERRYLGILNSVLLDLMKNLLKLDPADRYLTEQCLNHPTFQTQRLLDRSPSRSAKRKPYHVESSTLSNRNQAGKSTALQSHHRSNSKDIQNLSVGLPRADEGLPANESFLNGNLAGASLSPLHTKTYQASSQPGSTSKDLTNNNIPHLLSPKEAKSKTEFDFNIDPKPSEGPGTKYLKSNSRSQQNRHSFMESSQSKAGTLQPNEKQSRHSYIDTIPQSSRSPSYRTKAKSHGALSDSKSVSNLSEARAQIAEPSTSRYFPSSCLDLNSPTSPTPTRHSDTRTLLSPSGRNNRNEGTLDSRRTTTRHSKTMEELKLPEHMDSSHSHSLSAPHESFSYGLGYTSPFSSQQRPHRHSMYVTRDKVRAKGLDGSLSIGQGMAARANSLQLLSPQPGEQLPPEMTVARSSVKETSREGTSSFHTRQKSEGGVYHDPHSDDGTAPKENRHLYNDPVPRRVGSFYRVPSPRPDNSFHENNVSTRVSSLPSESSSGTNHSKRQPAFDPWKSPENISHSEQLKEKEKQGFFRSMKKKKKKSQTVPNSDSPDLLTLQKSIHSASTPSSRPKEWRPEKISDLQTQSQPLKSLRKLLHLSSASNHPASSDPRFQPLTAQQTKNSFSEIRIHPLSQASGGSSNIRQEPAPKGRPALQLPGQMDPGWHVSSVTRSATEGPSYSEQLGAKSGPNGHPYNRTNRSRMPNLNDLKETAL

[14] = molecular target: Serine/threonine-protein kinase PLK2 (Homo sapiens, UniProt Q9NYY3); test: Selectivity interaction (KinomeScan (DiscoverX)) EUB0000618a PLK2; settings: at 10 µM
Sequence of Serine/threonine-protein kinase PLK2 (Q9NYY3 whole entry, looked up): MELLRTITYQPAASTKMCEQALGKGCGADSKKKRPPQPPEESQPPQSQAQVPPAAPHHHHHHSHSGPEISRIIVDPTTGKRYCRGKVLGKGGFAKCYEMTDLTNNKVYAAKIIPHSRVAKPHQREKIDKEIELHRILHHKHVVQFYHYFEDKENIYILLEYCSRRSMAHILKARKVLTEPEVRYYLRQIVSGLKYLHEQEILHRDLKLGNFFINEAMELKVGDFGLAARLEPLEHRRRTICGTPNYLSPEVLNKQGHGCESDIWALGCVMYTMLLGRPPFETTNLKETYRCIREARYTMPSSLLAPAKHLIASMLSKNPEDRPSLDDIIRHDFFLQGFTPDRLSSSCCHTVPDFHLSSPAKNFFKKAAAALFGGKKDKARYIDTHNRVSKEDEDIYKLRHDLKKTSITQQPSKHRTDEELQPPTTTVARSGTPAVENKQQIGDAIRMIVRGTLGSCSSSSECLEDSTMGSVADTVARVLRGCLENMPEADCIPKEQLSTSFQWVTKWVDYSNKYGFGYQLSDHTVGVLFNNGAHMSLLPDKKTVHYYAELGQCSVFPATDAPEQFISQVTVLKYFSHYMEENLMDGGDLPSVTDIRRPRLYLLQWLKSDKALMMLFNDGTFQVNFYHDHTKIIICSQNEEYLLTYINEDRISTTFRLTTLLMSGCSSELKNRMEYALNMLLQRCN

[15] = molecular target: T3, Aurora kinase C (Homo sapiens) (UniProt Q9UQB9); test: Selectivity interaction (KinomeScan (DiscoverX)) EUB0000618a AURKC; settings: at 10 µM
T3 sequence (whole entry): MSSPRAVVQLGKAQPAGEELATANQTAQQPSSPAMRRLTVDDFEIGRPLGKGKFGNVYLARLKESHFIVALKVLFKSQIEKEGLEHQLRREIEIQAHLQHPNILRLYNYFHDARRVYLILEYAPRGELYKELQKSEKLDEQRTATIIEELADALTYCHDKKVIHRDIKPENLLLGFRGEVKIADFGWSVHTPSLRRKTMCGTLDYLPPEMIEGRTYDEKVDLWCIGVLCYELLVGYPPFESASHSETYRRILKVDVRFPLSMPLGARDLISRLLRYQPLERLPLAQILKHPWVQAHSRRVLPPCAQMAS

[16] = molecular target: Cyclin-dependent kinase 16 (Homo sapiens) (UniProt Q00536); test: Selectivity interaction (ActivX KiNativ screen (ex vivo kinase selectivity in human PBMCs)) EUB0001619a CDK16; assay type: cell-based; settings: PBMC, at 1 µM
Sequence of Cyclin-dependent kinase 16 (Homo sapiens) (Q00536 whole entry): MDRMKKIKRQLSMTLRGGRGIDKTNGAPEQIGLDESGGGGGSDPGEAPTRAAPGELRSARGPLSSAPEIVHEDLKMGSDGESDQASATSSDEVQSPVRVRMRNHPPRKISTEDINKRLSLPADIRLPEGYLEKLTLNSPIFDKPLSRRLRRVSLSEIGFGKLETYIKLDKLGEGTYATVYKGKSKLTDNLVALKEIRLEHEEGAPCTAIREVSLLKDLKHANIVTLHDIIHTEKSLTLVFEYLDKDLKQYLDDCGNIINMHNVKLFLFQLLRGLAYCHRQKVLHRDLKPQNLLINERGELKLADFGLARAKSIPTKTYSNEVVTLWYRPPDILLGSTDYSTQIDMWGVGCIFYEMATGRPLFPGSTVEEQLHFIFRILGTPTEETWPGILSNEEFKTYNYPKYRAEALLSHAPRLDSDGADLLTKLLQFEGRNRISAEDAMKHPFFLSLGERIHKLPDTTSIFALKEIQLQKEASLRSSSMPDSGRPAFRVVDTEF

Sequence of Protein-tyrosine kinase 6 (Q13882 whole entry, looked up): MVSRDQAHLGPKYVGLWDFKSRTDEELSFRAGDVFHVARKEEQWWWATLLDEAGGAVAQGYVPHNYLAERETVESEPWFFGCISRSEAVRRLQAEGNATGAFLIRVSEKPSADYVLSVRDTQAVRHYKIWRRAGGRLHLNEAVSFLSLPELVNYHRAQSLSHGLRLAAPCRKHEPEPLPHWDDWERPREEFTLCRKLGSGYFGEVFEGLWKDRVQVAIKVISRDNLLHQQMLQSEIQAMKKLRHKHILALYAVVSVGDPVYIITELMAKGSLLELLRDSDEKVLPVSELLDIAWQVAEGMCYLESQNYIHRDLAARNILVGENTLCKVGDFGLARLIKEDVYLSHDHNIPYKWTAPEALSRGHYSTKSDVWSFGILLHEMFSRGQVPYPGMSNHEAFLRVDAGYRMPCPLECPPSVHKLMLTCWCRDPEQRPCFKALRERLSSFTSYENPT

For `Cn1cc(-n2cnc3c(NCc4nc5cc(Cl)c(Cl)cc5[nH]4)nc(N4CCOCC4)nc32)cn1`, the % of control [1] was 9.47% and the % of inhibition [2] was 20%.

With `O=C(NOC[C@H](O)CO)c1ccc(F)c(F)c1Nc1ccc(I)cc1F` the % of control [3] was 94%.

Compound `CC[C@@H]1[C@H](F)C(=O)N[C@@H]1COc1nccc2cc(C(N)=O)c(OC)cc12` [ZIMLOVISERTIB] has a % of inhibition [4] of 22.6%.

Work on `CC(C)(O)[C@H](F)CN1Cc2cc(NC(=O)c3cnn4cccnc34)c(N3CCOCC3)cc2C1=O` yielded a dTM [5] of -0.3 K.

Work on `COc1cc(C(=O)N2CC[C@@H](O)[C@@H](N)C2)cc2nc(-c3cc4ccccc4n3CC3CC3)n(C)c12` yielded a pXC50 [6] of less than 4.5 M.

With `CN(C)CCOc1ccc(-c2nc(-c3ccncc3)c(-c3ccc4c(c3)CC/C4=N\O)[nH]2)cc1` the % of control [7] was 97% and the % of control [8] was 72%.

For `Nc1cnc(N2CCc3cc(S(=O)(=O)Nc4c(F)cc(Cl)cc4F)cc(N4CCCC4=O)c32)nc1` [TP-020n], the % of control [9] was 100%.

In the case of `C=CC(=O)Nc1ccc(C(=O)Nc2[nH]nc3c2CN(C(=O)N[C@H](CN(C)C)c2ccccc2)C3(C)C)cc1`, the % of engagement [10] is reported as -4.3% and the % of engagement [11] is reported as 24%.

Compound `COc1cc(N(C)c2ccnc3ccc(C(F)(F)F)cc23)cc(OC)c1OC` has a % binding [12] of 100% and a % binding [13] of 86%.

For `O[C@H]1CC[C@H](Nc2ncc3nc(Nc4c(F)cc(F)cc4F)n([C@H]4CCOC4)c3n2)CC1`, the % of control [14] was 100% and the % of control [15] was 100%.

For `N#Cc1cccc(-c2c[nH]c3ncnc(N4CCOCC4)c23)c1`, the % of inhibition [16] was 25%.
